This passage reports solubility results from US8722849B2, “Polypeptides” (Novo Nordisk A/S, priority 2011, dated 2014).

Converted amounts (≈) assume the structure as drawn. Like-named read-outs stand apart in the source and are kept apart here. Starred links: 1 amine or outer side, 2 acyl side, 3 side chain; linkers in the order of their positions; H or OH if unused. Positions of bridges follow the written chain, without caps; N, C: chain ends. Residues, ends and D or L forms follow the SMILES beside them. Groups on a side chain read outwards from the residue. *: point of attachment. C20 diacid = O=C(O)CCCCCCCCCCCCCCCCCCC(=O)*; γGlu = O=C(O)[C@H](CCC(=O)[*:2])N[*:1]; AEEA = NCCOCCOCC(=O)O

This series is described as follows: Assay (IV) determination of solubility. Format: physicochemical. Here is the method: ASSAY (IV)—Determination of Solubility
The polypeptide was dissolved in water at ˜500 nmol/ml and mixed 1:1 with a series of buffers (100 mM glycylglycine pH 3.0, 100 mM glycylglycine pH 4.0, 100 mM glycylglycine pH 5.0, 100 mM bistrispropane pH 6.0, 100 mM bistrispropane pH 6.5, 100 mM bistrispropane pH 7.0, 100 mM bistrispropane pH 7.5, 100 mM bistrispropane pH 8.0). After 18 hours at room temperature the samples were centrifuged and the polypeptide concentration determined by HPLC.

Where [1] appears, read: pH 3, pH 3.0, read-out: Solubility pH 3.0.
Setting [2] is: pH 4, pH 4.0, 18 hours at room temperature, Table 2, read-out: Solubility pH 4.0.
Where [3] appears, read: pH 4, pH 4.0, read-out: Solubility pH 4.0.
[4] abbreviates: pH 5, pH 5.0, read-out: Solubility pH 5.0.
[5] abbreviates: pH 6, pH 6.0, read-out: Solubility pH 6.0.
Setting [6] is: pH 6.5, pH 6.5, read-out: Solubility pH 6.5.
[7] abbreviates: pH 7, pH 7.0, read-out: Solubility pH 7.0.
Setting [8] is: pH 7.5, pH 7.5, read-out: Solubility pH 7.5.
The mark [9] stands for this setting: pH 8, pH 8.0, read-out: Solubility pH 8.0.

For the compound `CC[C@H](C)[C@H](NC(=O)[C@@H]1CCCN1C(=O)CNC(=O)[C@H](Cc1ccccc1)NC(=O)[C@H](CC(N)=O)NC(=O)[C@H](CCCCNC(=O)COCCOCCNC(=O)COCCOCCNC(=O)CC[C@H](NC(=O)CCCCCCCCCCCCCCCCCCC(=O)O)C(=O)O)NC(=O)[C@H](CO)NC(=O)[C@H](CO)NC(=O)[C@H](Cc1c[nH]cn1)NC(=O)[C@@H](NC(=O)[C@H](CC(C)C)NC(=O)[C@H](Cc1ccccc1)NC(=O)[C@H](CCC(=O)O)NC(=O)[C@H](C)NC(=O)[C@H](CC(C)C)NC(=O)[C@H](CCCNC(=N)N)NC(=O)[C@H](CCC(N)=O)NC(=O)[C@@H](NC(=O)[C@H](C)NC(=O)[C@@H]1CSSC[C@H](NC(=O)[C@@H](N)CCCCN)C(=O)N[C@@H](CC(N)=O)C(=O)N[C@@H]([C@@H](C)O)C(=O)N[C@@H](C)C(=O)N[C@@H]([C@@H](C)O)C(=O)N1)[C@@H](C)O)C(C)C)C(=O)N[C@@H](CC(C)C)C(=O)N[C@@H](CO)C(=O)N[C@@H](CO)C(=O)N[C@H](C(=O)N[C@@H](CC(N)=O)C(=O)N[C@H](C(=O)NCC(=O)N[C@@H](CO)C(=O)N[C@@H](Cc1c[nH]cn1)C(=O)N[C@H](C(=O)N[C@@H](Cc1ccc(O)cc1)C(N)=O)[C@@H](C)O)C(C)C)[C@@H](C)O` [Example 131, N-epsilon21-[2-(2-{2-[2-(2-{2-[(S)-4-Carboxy-4-(19-carboxyheptadecanoylamino)butyrylamino]ethoxy}ethoxy)acetylamino]ethoxy}ethoxy)acetyl]-[Glu14,Lys21,Ser28,Ser29,His35]-pramlintide] (H-KCNTATCATQRLAEFLVHSSK([AEEA-AEEA-γGlu-C20 diacid])NFGPILSSTNVGSHTY-NH2; disulfide 2-7), the solubility is, setting by setting: under setting [1], greater than 200 µM; under setting [2], 172 µM (≈ 813 µg/mL); under setting [3], 172 µM (≈ 813 µg/mL); under setting [4], 150 µM (≈ 709 µg/mL); under setting [5], 25 µM (≈ 118 µg/mL); under setting [6], 27 µM (≈ 128 µg/mL). The solubility under setting [7] was 6 µM (≈ 28.4 µg/mL), the solubility under setting [8] worked out at 4 µM (≈ 18.9 µg/mL) and the solubility under setting [9] turned out to be 3 µM (≈ 14.2 µg/mL).

In the case of `CC[C@H](C)[C@H](NC(=O)[C@@H]1CCCN1C(=O)CNC(=O)[C@H](Cc1ccccc1)NC(=O)[C@H](CC(N)=O)NC(=O)[C@H](CCCCNC(=O)COCCOCCNC(=O)COCCOCCNC(=O)CC[C@H](NC(=O)CCCCCCCCCCCCCCCCCCC(=O)O)C(=O)O)NC(=O)[C@H](CO)NC(=O)[C@H](CO)NC(=O)[C@H](Cc1c[nH]cn1)NC(=O)[C@@H](NC(=O)[C@H](CC(C)C)NC(=O)[C@H](Cc1ccccc1)NC(=O)[C@H](CCC(=O)O)NC(=O)[C@H](C)NC(=O)[C@H](CC(C)C)NC(=O)[C@H](CCCNC(=N)N)NC(=O)[C@H](CCC(N)=O)NC(=O)[C@@H](NC(=O)[C@H](C)NC(=O)[C@@H]1CSSC[C@H](NC(=O)[C@@H](N)CCCCN)C(=O)N[C@@H](CC(N)=O)C(=O)N[C@@H]([C@@H](C)O)C(=O)N[C@@H](C)C(=O)N[C@@H]([C@@H](C)O)C(=O)N1)[C@@H](C)O)C(C)C)C(=O)N[C@@H](CC(C)C)C(=O)N1CCC[C@H]1C(=O)N1CCC[C@H]1C(=O)N[C@H](C(=O)N[C@@H](CC(N)=O)C(=O)N[C@H](C(=O)NCC(=O)N[C@@H](CO)C(=O)N[C@@H](Cc1c[nH]cn1)C(=O)N[C@H](C(=O)N[C@@H](Cc1ccc(O)cc1)C(N)=O)[C@@H](C)O)C(C)C)[C@@H](C)O` [Example 132, N-epsilon21-[2-(2-{2-[2-(2-{2-[(S)-4-Carboxy-4-(19-carboxyheptadecanoylamino)butyrylamino]ethoxy}ethoxy)acetylamino]ethoxy}ethoxy)acetyl]-[Glu14,Lys21,His35]-pramlintide] (H-KCNTATCATQRLAEFLVHSSK([AEEA-AEEA-γGlu-C20 diacid])NFGPILPPTNVGSHTY-NH2; disulfide 2-7), the solubility is greater than 200 µM under setting [1]; greater than 200 µM under setting [2]; greater than 200 µM under setting [3]; greater than 200 µM under setting [4]; greater than 200 µM under setting [5]; 198 µM (≈ 940 µg/mL) under setting [6]. The solubility by setting is: (pH 7, pH 7.0, 18 hours at room temperature, Table 3, read-out: Solubility pH 7.0) 142 µM (≈ 674 µg/mL); under setting [7], 142 µM (≈ 674 µg/mL); under setting [8], 169 µM (≈ 802 µg/mL); under setting [9], greater than 200 µM.
